Source: patent publication US11312704B2, “Inhibitors of cysteine proteases and methods of use thereof” (priority 2020, dated 2022)
Where two headings read alike, the source gives them in different places.

Key:
229E mPRO = 229E mPRO (Human coronavirus 229E (HCoV-229E), UniProt P0C6X1); assay: 229E mPRO enzymatic assay; format: biochemical, Human Coronavirus (HCov) 229E
Experimental: Compounds were assayed using standard methods to assess compound activity and IC50. […] The assay buffer contained 20 mM of Tris-HCl (pH 7.3), 100 mM of NaCl, 1 mM of EDTA, 5 mM of TCEP and 0.1% BSA.
The compounds were added to an assay plate.
IC50 values of compounds were calculated with the GraphPad Prism software using the nonlinear regression model of log(inhibitor) vs. response—Variable slope (four parameters). The inhibition activity was calculated using the formula below, IC50 values was calculated using the Inhibition % data. Inhibition %=[(Sample-Average ZPE)/(Average HPE-Average ZPE)]*100%^#

SARS-COV2 Mpro = SARS-COV2 Mpro (Severe acute respiratory syndrome coronavirus 2 (2019-nCoV) (SARS-CoV-2), UniProt P0DTD1); assay: SARS-CoV2 Mpro enzymatic assay; format: biochemical; conditions: 25 nM Mpro, 25 μM substrate
HCoV 229E = HCoV 229E cytopathic effect (CPE) assay; format: cell-based, Human Coronavirus (HCov) 229E; conditions: CellTiter Glo
Experimental: The antiviral activity of compounds was calculated based on the protection of the virus-induced CPE at each concentration normalized by the virus control.
Reagents and instruments used in this assay include luminescent cell viability assay kit CellTiter Glo (Promega) and Microplate Reader Synergy2 (BioTek).
Cytopathic effect (CPE) was measured by CellTiter Glo following the manufacturer's manual. The antiviral activity of compounds was calculated based on the protection of the virus-induced CPE at each concentration normalized by the virus control.

[1] = test system: cell viability without virus infection; assay: Cytotoxicity under the 229E CPE conditions without virus infection (CellTiter Glo); conditions: read-out: 229E CC50

229E mPRO, sequence (P0C6X1 2966-3267 limits assumed): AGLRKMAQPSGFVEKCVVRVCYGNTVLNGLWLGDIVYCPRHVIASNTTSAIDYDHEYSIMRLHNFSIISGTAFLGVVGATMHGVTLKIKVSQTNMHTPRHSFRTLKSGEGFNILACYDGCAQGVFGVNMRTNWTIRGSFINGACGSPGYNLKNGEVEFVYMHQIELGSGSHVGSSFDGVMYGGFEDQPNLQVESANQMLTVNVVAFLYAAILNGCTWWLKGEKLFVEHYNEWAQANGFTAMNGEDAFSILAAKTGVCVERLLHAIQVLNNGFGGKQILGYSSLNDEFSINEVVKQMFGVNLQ

SMILES	IC50 (229E mPRO; read-out: 229E mPRO IC50) [nM]	EC50 (HCoV 229E) [nM]	further results
COc1cccc2[nH]c(C(=O)N3CC4(CCC4)CC3C(=O)N[C@H](C#N)C[C@@H]3CCCNC3=O)cc12 (single isomer, unassigned) [719 (Isomer 2)]	< 2000	< 2000	IC50 (SARS-COV2 Mpro): < 2000 nM
CCNC(C#N)[C@H](C[C@@H]1CCNC1=O)NC(=O)[C@H](CC(C)C)NC(=O)c1cc2c(OC)cccc2[nH]1 (single isomer, unassigned) [511 (Isomer 1)]	< 2000	< 2000	
COc1cccc2[nH]c(C(=O)N3C[C@H](OC)C[C@H]3C(=O)N[C@H](C#N)C[C@@H]3CCNC3=O)cc12 [Compound 407]	< 2000	< 2000	
CCCOc1cccc2[nH]c(C(=O)N[C@@H](CC(C)C)C(=O)N[C@H](C#N)C[C@@H]3CCNC3=O)cc12 [Compound 379]	< 2000	< 2000	
CC(C)CC(NC(=O)c1nc2ncccc2[nH]1)C(=O)NC(C#N)CC1CCNC1=O (single isomer, unassigned) [130 (Isomer 1)]			CC50 [1]: > 30000 nM
COc1cccc2[nH]c(C(=O)N[C@@H](CC(C)C)C(=O)N[C@@H](C[C@@H]3CCNC3=O)C(C#N)Nc3ccccc3)cc12 (stereo partly drawn) [Compound 327]	< 2000		IC50 (SARS-COV2 Mpro): < 2000 nM
COc1cccc2[nH]c(C(=O)N[C@H](CC3CC3)C(=O)N[C@H](C#N)C[C@@H]3CCCNC3=O)cc12 (single isomer, unassigned) [491A (Isomer 2)]			IC50 (229E mPRO): < 2000 nM
COc1cccc2[nH]c(C(=O)N[C@@H](CC3CC3)C(=O)N[C@H](C#N)C[C@@H]3CCCNC3=O)cc12 (single isomer, unassigned) [491 (Isomer 1)]	< 2000		
CCNC(C#N)[C@H](C[C@@H]1CCNC1=O)NC(=O)[C@H](CC(C)C)NC(=O)c1cc2c(OC)cccc2[nH]1 (single isomer, unassigned) [511 (Isomer 2)]	< 2000		
COc1cccc2[nH]c(C(=O)N[C@@H](CC(C)C)C(=O)N[C@H](C#N)Cc3cn(C)cn3)cc12 [Compound 227, N-[(1S)-1-[[(1S)-1-cyano-2-(1-methylimidazol-4-yl)ethyl]carbamoyl]-3-methyl-butyl]-4-methoxy-1H-indole-2-carboxamide]	> 30000		
N#C[C@H](C[C@@H]1CCCNC1=O)NC(=O)[C@H](CC1CC1)NC(=O)c1cc2ccc(Cl)cc2[nH]1 [Compound 635, 6-Chloro-N-[(1S)-2-[[(1S)-1-cyano-2-[(3S)-2-oxo-3-piperidyl]ethyl]amino]-1-(cyclopropylmethyl)-2-oxo-ethyl]-1H-indole-2-carboxamide]		< 2000	
COc1cccc2[nH]c(C(=O)N[C@@H](CC(C)C)C(=O)N[C@@H](C[C@@H]3CCNC3=O)C(C#N)N[C@@H](C)c3ccccc3)cc12 (stereo partly drawn) [Compound 329]		< 2000	
COc1cccc2[nH]c(C(=O)N[C@@H](CC(C)C)C(=O)N[C@@H](C[C@@H]3CCNC3=O)C(C#N)N3CCCC3)cc12 (single isomer, unassigned) [331 (Isomer 2)]	< 2000		
COc1c(Cl)ccc2[nH]c(C(=O)N[C@@H](CC(C)(C)C)C(=O)N[C@H](C#N)C[C@@H]3CCCNC3=O)cc12 [Compound 739]		< 2000	
CC(C)C[C@H](NC(=O)c1nc2c(OC(F)(F)F)cccc2[nH]1)C(=O)N[C@H](C#N)C[C@@H]1CCNC1=O [Compound 363]		< 2000	
COc1cccc2[nH]c(C(=O)N3CC4(CCCCC4)CC3C(=O)N[C@H](C#N)C[C@@H]3CCCNC3=O)cc12 (single isomer, unassigned) [681 (Isomer 1)]		< 2000	
N#C[C@H](C[C@@H]1CCCNC1=O)NC(=O)[C@H](CC1CC1)NC(=O)c1cc2cccc(Cl)c2[nH]1 (single isomer, unassigned) [639 (Isomer 1)]	< 2000	< 2000	
N#C[C@H](C[C@@H]1CCCNC1=O)NC(=O)[C@H](CC1CC1)NC(=O)c1cc2cc(Cl)ncc2[nH]1 [Compound 717]		< 2000	
COc1cccc2[nH]c(C(=O)N3C[C@@H]4CCC[C@@H]4[C@H]3C(=O)N[C@H](C#N)C[C@@H]3CCNC3=O)cc12 [Compound 393]		< 2000	
N#C[C@H](C[C@@H]1CCCNC1=O)NC(=O)[C@H](CC1CC1)NC(=O)c1cc2c(Cl)nccc2[nH]1 [Compound 715]		< 2000	
